Key:
[1] = system: ISC-enriched organoids; test: Primary screen, 384-well 2.5-D organoid differentiation (ENR+CD, 6 days, Target Selective Inhibitor Library, vs whole-plate median): ATP (CellTiter-Glo 3D, CTG); conditions: for Dose.FC.CTG (log 2 fold change): vs plate median; for Dose.FC.CTG: FC vs plate median; for Z.CTG: standard z score of FC
[2] = system: ISC-enriched organoids; test: Primary screen, 384-well 2.5-D organoid differentiation (ENR+CD, 6 days): basal lysozyme secretion (LYZ.NS); format: cell-based, murine; conditions: for Dose.FC.LYZ.NS (log 2 fold change): vs plate median; for Dose.FC.LYZ.NS: FC vs plate median; for Z.LYZ.NS: standard z score of FC
Excerpt: (§1) High-throughput screening.

[3] = system: ISC-enriched organoids; test: Primary screen, 384-well 2.5-D organoid differentiation (ENR+CD, 6 days): carbachol-induced lysozyme secretion (LYZ.S); format: cell-based, murine; conditions: for Dose.FC.LYZ.S (log 2 fold change): vs plate median; for Dose.FC.LYZ.S: FC vs plate median
Excerpt: as §1

[4] = primary screen, dose 0.08 uM, ENR+CD 6 days
[5] = primary screen, dose 0.40 uM, ENR+CD 6 days
[6] = primary screen, dose 2.00 uM, ENR+CD 6 days
[7] = primary screen, dose 10.00 uM, ENR+CD 6 days

CNC(=O)c1ccc2cc([C@@]3(O)CCn4cncc43)ccc2c1 [TAK-700 (Orteronel)]
Z.CTG (standard z score) ([1]; Dose 0.08 uM, primary screen): −0.659
Dose.FC.CTG (log 2 fold change) ([1]; Dose 0.08 uM, primary screen): −0.276
Z.CTG (standard z score) ([1]; Dose 0.40 uM, primary screen): −0.056
Dose.FC.CTG (log 2 fold change) ([1]; Dose 0.40 uM, primary screen): −0.024
Z.CTG (standard z score) ([1]; Dose 2.00 uM, primary screen): −0.202
Dose.FC.CTG (log 2 fold change) ([1]; Dose 2.00 uM, primary screen): −0.084
Z.CTG (standard z score) ([1]; Dose 10.00 uM, primary screen): 0.219
Dose.FC.CTG (log 2 fold change) ([1]; Dose 10.00 uM, primary screen): 0.092
Z.LYZ.NS (standard z score) ([2]; Dose 0.08 uM, primary screen): 1.535
Dose.FC.LYZ.NS (log 2 fold change) ([2]; Dose 0.08 uM, primary screen): 0.176
Z.LYZ.NS (standard z score) ([2]; Dose 0.40 uM, primary screen): 1.585
Dose.FC.LYZ.NS (log 2 fold change) ([2]; Dose 0.40 uM, primary screen): 0.182
Z.LYZ.NS (standard z score) ([2]; Dose 2.00 uM, primary screen): 1.058
Dose.FC.LYZ.NS (log 2 fold change) ([2]; Dose 2.00 uM, primary screen): 0.121
Z.LYZ.NS (standard z score) ([2]; Dose 10.00 uM, primary screen): −0.018
Dose.FC.LYZ.NS (log 2 fold change) ([2]; Dose 10.00 uM, primary screen): −0.002
Dose.FC.LYZ.S (log 2 fold change) ([3]; Dose 0.08 uM, primary screen): 0.113
Dose.FC.LYZ.S (log 2 fold change) ([3]; Dose 0.40 uM, primary screen): 0.090
Dose.FC.LYZ.S (log 2 fold change) ([3]; Dose 2.00 uM, primary screen): 0.093
Dose.FC.LYZ.S (log 2 fold change) ([3]; Dose 10.00 uM, primary screen): 0.032

SN-38
Z.CTG (standard z score) ([1]; Dose 0.08 uM, primary screen): −1.720
Dose.FC.CTG (log 2 fold change) ([1]; Dose 0.08 uM, primary screen): −0.720
Z.CTG (standard z score) ([1]; Dose 0.40 uM, primary screen): −2.606
Dose.FC.CTG (log 2 fold change) ([1]; Dose 0.40 uM, primary screen): −1.091
Z.CTG (standard z score) ([1]; Dose 2.00 uM, primary screen): −2.929
Dose.FC.CTG (log 2 fold change) ([1]; Dose 2.00 uM, primary screen): −1.226
Z.CTG (standard z score) ([1]; Dose 10.00 uM, primary screen): −2.785
Dose.FC.CTG (log 2 fold change) ([1]; Dose 10.00 uM, primary screen): −1.166
Z.LYZ.NS (standard z score) ([2]; Dose 0.08 uM, primary screen): −2.391
Dose.FC.LYZ.NS (log 2 fold change) ([2]; Dose 0.08 uM, primary screen): −0.275
Z.LYZ.NS (standard z score) ([2]; Dose 0.40 uM, primary screen): −2.505
Dose.FC.LYZ.NS (log 2 fold change) ([2]; Dose 0.40 uM, primary screen): −0.288
Z.LYZ.NS (standard z score) ([2]; Dose 2.00 uM, primary screen): −2.655
Dose.FC.LYZ.NS (log 2 fold change) ([2]; Dose 2.00 uM, primary screen): −0.305
Z.LYZ.NS (standard z score) ([2]; Dose 10.00 uM, primary screen): −2.606
Dose.FC.LYZ.NS (log 2 fold change) ([2]; Dose 10.00 uM, primary screen): −0.299
Dose.FC.LYZ.S (log 2 fold change) ([3]; Dose 0.08 uM, primary screen): −0.419
Dose.FC.LYZ.S (log 2 fold change) ([3]; Dose 0.40 uM, primary screen): −0.402
Dose.FC.LYZ.S (log 2 fold change) ([3]; Dose 2.00 uM, primary screen): −0.391
Dose.FC.LYZ.S (log 2 fold change) ([3]; Dose 10.00 uM, primary screen): −0.404

C[C@@H]1COCCN1c1cc(C2(S(C)(=O)=O)CC2)nc(-c2cccc3[nH]ccc23)n1 [AZ20]
Dose.FC.CTG [1, 4]: −0.210 log 2 fold change
Z.CTG ([1]; primary screen, dose 0.08 uM): −0.500
Dose.FC.CTG [1, 5]: −0.218 log 2 fold change
Z.CTG ([1]; primary screen, dose 0.40 uM): −0.521
Dose.FC.CTG [1, 6]: −1.054 log 2 fold change
Z.CTG ([1]; primary screen, dose 2.00 uM): −2.519
Dose.FC.CTG [1, 7]: −0.573 log 2 fold change
Z.CTG ([1]; primary screen, dose 10.00 uM): −1.368
Dose.FC.LYZ.NS [2, 4]: 0.042 log 2 fold change
Z.LYZ.NS ([2]; primary screen, dose 0.08 uM): 0.365
Dose.FC.LYZ.NS [2, 5]: −0.140 log 2 fold change
Z.LYZ.NS ([2]; primary screen, dose 0.40 uM): −1.222
Dose.FC.LYZ.NS [2, 6]: −0.215 log 2 fold change
Z.LYZ.NS ([2]; primary screen, dose 2.00 uM): −1.868
Dose.FC.LYZ.NS [2, 7]: −0.261 log 2 fold change
Z.LYZ.NS ([2]; primary screen, dose 10.00 uM): −2.271
Dose.FC.LYZ.S [3, 4]: −0.038 log 2 fold change
Dose.FC.LYZ.S [3, 5]: −0.236 log 2 fold change
Dose.FC.LYZ.S [3, 6]: −0.373 log 2 fold change
Dose.FC.LYZ.S [3, 7]: −0.329 log 2 fold change

C[C@@H]1C(=O)O[C@H]2C[C@@]34[C@H]5C[C@@H](C(C)(C)C)[C@]36[C@@H](OC(=O)[C@@H]6O)O[C@@]4(C(=O)O5)[C@]21O [Ginkgolide A]
Dose.FC.CTG ([1]; Dose 0.08 uM, ENR+CD, 6 days): 0.005 log 2 fold change
Z.CTG ([1]; Dose 0.08 uM): 0.011
Dose.FC.CTG ([1]; Dose 0.40 uM, ENR+CD, 6 days): −0.017 log 2 fold change
Z.CTG ([1]; Dose 0.40 uM): −0.040
Dose.FC.CTG ([1]; Dose 2.00 uM, ENR+CD, 6 days): 0.040 log 2 fold change
Z.CTG ([1]; Dose 2.00 uM): 0.095
Dose.FC.CTG ([1]; Dose 10.00 uM, ENR+CD, 6 days): −0.012 log 2 fold change
Z.CTG ([1]; Dose 10.00 uM): −0.028
Dose.FC.LYZ.NS ([2]; Dose 0.08 uM, ENR+CD, 6 days): 0.045 log 2 fold change
Z.LYZ.NS ([2]; Dose 0.08 uM): 0.395
Dose.FC.LYZ.NS ([2]; Dose 0.40 uM, ENR+CD, 6 days): 0.025 log 2 fold change
Z.LYZ.NS ([2]; Dose 0.40 uM): 0.222
Dose.FC.LYZ.NS ([2]; Dose 2.00 uM, ENR+CD, 6 days): 0.030 log 2 fold change
Z.LYZ.NS ([2]; Dose 2.00 uM): 0.258
Dose.FC.LYZ.NS ([2]; Dose 10.00 uM, ENR+CD, 6 days): 0.052 log 2 fold change
Z.LYZ.NS ([2]; Dose 10.00 uM): 0.450
Dose.FC.LYZ.S ([3]; Dose 0.08 uM, ENR+CD, 6 days): 0.124 log 2 fold change
Dose.FC.LYZ.S ([3]; Dose 0.40 uM, ENR+CD, 6 days): 0.161 log 2 fold change
Dose.FC.LYZ.S ([3]; Dose 2.00 uM, ENR+CD, 6 days): 0.002 log 2 fold change
Dose.FC.LYZ.S ([3]; Dose 10.00 uM, ENR+CD, 6 days): −0.028 log 2 fold change

Source: patent US20230398130A1, “METHODS AND COMPOSITIONS FOR DIFFERENTIATING STEM CELLS” (Massachusetts Institute of Technology, priority 2020, published 2023)
